# Experimental data as given in patent publication US12421211B2, “Heterocyclic compounds” (Hoffmann-La Roche Inc., priority 2021, dated 2025).
# Structures can show the parent of a compound that is named as a salt.
# System: Acinetobacter baumannii ATCC17961
# Test: Antimicrobial susceptibility testing: 90% growth inhibitory concentration (IC90) determination
# Assay type: cell-based
# Details: Acinetobacter baumannii, ATCC17961, 16 h, 90% growth inhibitory concentration, Acinetobacter baumannii ATCC17961, Iso-Sensitest broth, OD 600 nm over 16 h; read-out: ATCC 17961 IC90
# Summary of the method: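 Growth inhibition derived in log phase from OD600 kinetics (every 20 minutes, 16h, 35±2° C) of ATCC17961 in Iso-Sensitest medium, inoculum ~5×10^5 CFU/ml. Compounds tested as twofold series, 10 points (e.g. 50 to 0.097 μM final); IC90 and IC50 reported.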
row,SMILES,IC90 [nM]
1,"COCCn1ncc(-c2ccc(-c3cnc(C(=O)Nc4ccc(C(=O)N5CCN(C(=O)CCC[N+](C)(CCCN)CC(=O)O)CC5)c(Cl)c4)n3C)c(C)c2F)c1C (stereo not shown) [Example O5, 3-aminopropyl-(carboxymethyl)-[4-[4-[2-chloro-4-[[5-[3-fluoro-4-[1-(2-methoxyethyl)-5-methyl-pyrazol-4-yl]-2-methyl-phenyl]-1-methyl-imidazole-2-carbonyl]amino]benzoyl]piperazino]-4-keto-butyl]-methyl-ammonium. 1:12,2,2-trifluoroacetic acid; 2,2,2-trifluoroacetate]",200
2,"COCCn1ncc(-c2ccc(-c3cnc(C(=O)Nc4ccc(C(=O)N5CCC(C(=O)NCCCc6cc[n+](CC(=O)O)c(CCCN)c6)CC5)c(Cl)c4)n3C)c(F)c2F)c1C [Example O12, 2-[2-(3-aminopropyl)-4-[3-[[1-[2-chloro-4-[[5-[2,3-difluoro-4-[1-(2-methoxyethyl)-5-methyl-pyrazol-4-yl]phenyl]-1-methyl-imidazole-2-carbonyl]amino]benzoyl]isonipecotoyl]amino]-propyl]pyridin-1-ium-1-yl]acetic acid; formate]",339
3,"COCCn1ncc(-c2ccc(-c3cnc(C(=O)Nc4ccc(C(=O)N5CCN(C(=O)CCC[N+](C)(CC(=O)O)CC6CNC6)CC5)c(Cl)c4)n3C)c(F)c2F)c1C (stereo not shown) [Example P1, azetidin-3-ylmethyl-(carboxymethyl)-[4-[4-[2-chloro-4-[[5-[2,3-difluoro-4-[1-(2-methoxyethyl)-5-methyl-pyrazol-4-yl]phenyl]-1-methyl-imidazole-2-carbonyl]amino]benzoyl]piperazin-1-yl]-4-oxo-butyl]-methyl-ammonium; formate]",191

# Same assay, conditions: Acinetobacter baumannii, ATCC17961, 16 h, read-out: ATCC 17961 IC90
row,SMILES,IC90 [nM]
1,"COCCn1cc(-c2ccc(-c3cnc(C(=O)Nc4ccc(C(=O)N5CCN(C(=O)[C@H]6CC[N@+](CC(=O)O)(CC7CNC7)CC6)CC5)c(C)c4)n3C)c(F)c2F)c(C)n1 [Example O8, cis 2-[1-(azetidin-3-ylmethyl)-4-[4-[4-[[5-[2,3-difluoro-4-[1-(2-methoxyethyl)-3-methylpyrazol-4-yl]phenyl]-1-methylimidazole-2-carbonyl]amino]-2-methylbenzoyl]piperazine-1-carbonyl]piperidin-1-ium-1-yl]acetic acid formate]",245
2,"COCCn1cc(-c2ccc(-c3cnc(C(=O)Nc4ccc(C(=O)N5CCN(C(=O)[C@H]6CC[N@+](CC(=O)O)(CC7CNC7)CC6)CC5)c(C)c4)n3C)cc2F)c(C)n1 [Example O9, cis 2-[1-(azetidin-3-ylmethyl)-4-[4-[4-[[5-[3-fluoro-4-[1-(2-methoxyethyl)-3-methyl-pyrazol-4-yl]phenyl]-1-methyl-imidazole-2-carbonyl]amino]-2-methyl-benzoyl]piperazine-1-carbonyl]piperidin-1-ium-1-yl]acetic acid formate]",284
3,"COCCn1ncc(-c2ccc(-c3cnc(C(=O)Nc4ccc(C(=O)N5CCN(C(=O)[C@H]6CC[N@+](CC(=O)O)(CC7CNC7)CC6)CC5)c(C)c4)n3C)c(C)c2F)c1C [Example O10, cis 2-[1-(azetidin-3-ylmethyl)-4-[4-[4-[[5-[3-fluoro-4-[1-(2-methoxyethyl)-5-methylpyrazol-4-yl]-2-methylphenyl]-1-methylimidazole-2-carbonyl]amino]-2-methylbenzoyl]piperazine-1-carbonyl]piperidin-1-ium-1-yl]acetic acid; formate]",231
4,"COCCn1ncc(-c2ccc(-c3cnc(C(=O)Nc4ccc(C(=O)N5CCN(C(=O)[C@@H]6C[C@@H](O)C[N+]6(C)C)CC5)c(Cl)c4)n3C)c(C)c2F)c1C [Example O11, N-[3-chloro-4-[4-[(2S,4R)-4-hydroxy-1,1-dimethyl-pyrrolidin-1-ium-2-carbonyl]piperazine-1-carbonyl]phenyl]-5-[3-fluoro-4-[1-(2-methoxyethyl)-5-methyl-pyrazol-4-yl]-2-methyl-phenyl]-1-methyl-imidazole-2-carboxamide; 2,2,2-trifluoroacetate]",156
